In ChEMBL document CHEMBL3400063, “Novel pyrrole carboxamide inhibitors of JAK2 as potential treatment of myeloproliferative disorders” (Bioorg Med Chem, 2015):
In brackets after ≈: the same amount, converted by molar mass. Blank lines part the entries; values can stand above or below the compound they belong to. Activity calls are given as the source filed them. The rule behind the calls is not given here.

What was measured:
[1] = Half life in Balb nu/nu mouse at 10 mg/kg, po by LC/MS/MS analysis; format: ADME, organism-based; design: dose 10 mg/kg, route oral; settings: in vivo
Mus musculus [2] = assay: In vivo inhibition of JAK2 in SCID mouse xenografted with human SET2 cells assessed as inhibition of STAT5 phosphorylation at 50 mg/kg, po up to 6 hrs; format: functional, organism-based; design: dose 50 mg/kg
[3] = Cmax in Balb nu/nu mouse at 10 mg/kg, iv by LC/MS/MS analysis; format: ADME, organism-based; design: dose 10 mg/kg, route intravenous; settings: in vivo
Mus musculus [4] = assay: In vivo inhibition of JAK2 in SCID mouse xenografted with human SET2 cells assessed as total STAT5 level at 50 mg/kg, po after 3 hrs; format: functional, organism-based; design: dose 50 mg/kg
[5] = Volume of distribution at steady state in Balb nu/nu mouse at 10 mg/kg, iv by LC/MS/MS analysis; format: ADME, organism-based; design: dose 10 mg/kg, route intravenous; settings: in vivo, read-out: Vdss
[6] = Solubility of the compound at pH 7; format: physicochemical; settings: buffer
[7] = Half life in Balb nu/nu mouse at 10 mg/kg, iv by LC/MS/MS analysis; format: ADME, organism-based; design: dose 10 mg/kg, route intravenous; settings: in vivo
[8] = AUC (infinity) in Balb nu/nu mouse at 10 mg/kg, iv by LC/MS/MS analysis; format: ADME, organism-based; design: time infinity, dose 10 mg/kg, route intravenous; settings: plasma
[9] = target: Tyrosine-protein kinase JAK1 (Homo sapiens) (UniProt P23458); assay: Inhibition of JAK1 in human DERL7 cells assessed as inhibition of STAT5 phosphorylation after 2 hrs by SDS-PAGE analysis in presence of human IL-2; format: cell-based
[10] = AUC (infinity) in Balb nu/nu mouse at 10 mg/kg, po by LC/MS/MS analysis; format: ADME, organism-based; design: dose 10 mg/kg, route oral, time infinity; settings: plasma
Mus musculus [11] = assay: In vivo inhibition of JAK2 in SCID mouse xenografted with human SET2 cells assessed as total STAT5 level at 50 mg/kg, po up to 6 hrs; format: functional, organism-based; design: dose 50 mg/kg
Mus musculus [12] = assay: In vivo inhibition of JAK2 in SCID mouse xenografted with human SET2 cells assessed as inhibition of STAT5 phosphorylation at 50 mg/kg, po after 3 hrs; format: functional, organism-based; design: dose 50 mg/kg
[13] = Oral bioavailability in Balb nu/nu mouse at 10 mg/kg by LC/MS/MS analysis; format: ADME, organism-based; settings: in vivo
[14] = target: T1, Tyrosine-protein kinase JAK3 (Homo sapiens) (UniProt P52333); assay: Inhibition of JAK3 in human DERL7 cells assessed as inhibition of STAT5 phosphorylation after 2 hrs by SDS-PAGE analysis in presence of human IL-2; format: cell-based
T1 sequence (whole entry): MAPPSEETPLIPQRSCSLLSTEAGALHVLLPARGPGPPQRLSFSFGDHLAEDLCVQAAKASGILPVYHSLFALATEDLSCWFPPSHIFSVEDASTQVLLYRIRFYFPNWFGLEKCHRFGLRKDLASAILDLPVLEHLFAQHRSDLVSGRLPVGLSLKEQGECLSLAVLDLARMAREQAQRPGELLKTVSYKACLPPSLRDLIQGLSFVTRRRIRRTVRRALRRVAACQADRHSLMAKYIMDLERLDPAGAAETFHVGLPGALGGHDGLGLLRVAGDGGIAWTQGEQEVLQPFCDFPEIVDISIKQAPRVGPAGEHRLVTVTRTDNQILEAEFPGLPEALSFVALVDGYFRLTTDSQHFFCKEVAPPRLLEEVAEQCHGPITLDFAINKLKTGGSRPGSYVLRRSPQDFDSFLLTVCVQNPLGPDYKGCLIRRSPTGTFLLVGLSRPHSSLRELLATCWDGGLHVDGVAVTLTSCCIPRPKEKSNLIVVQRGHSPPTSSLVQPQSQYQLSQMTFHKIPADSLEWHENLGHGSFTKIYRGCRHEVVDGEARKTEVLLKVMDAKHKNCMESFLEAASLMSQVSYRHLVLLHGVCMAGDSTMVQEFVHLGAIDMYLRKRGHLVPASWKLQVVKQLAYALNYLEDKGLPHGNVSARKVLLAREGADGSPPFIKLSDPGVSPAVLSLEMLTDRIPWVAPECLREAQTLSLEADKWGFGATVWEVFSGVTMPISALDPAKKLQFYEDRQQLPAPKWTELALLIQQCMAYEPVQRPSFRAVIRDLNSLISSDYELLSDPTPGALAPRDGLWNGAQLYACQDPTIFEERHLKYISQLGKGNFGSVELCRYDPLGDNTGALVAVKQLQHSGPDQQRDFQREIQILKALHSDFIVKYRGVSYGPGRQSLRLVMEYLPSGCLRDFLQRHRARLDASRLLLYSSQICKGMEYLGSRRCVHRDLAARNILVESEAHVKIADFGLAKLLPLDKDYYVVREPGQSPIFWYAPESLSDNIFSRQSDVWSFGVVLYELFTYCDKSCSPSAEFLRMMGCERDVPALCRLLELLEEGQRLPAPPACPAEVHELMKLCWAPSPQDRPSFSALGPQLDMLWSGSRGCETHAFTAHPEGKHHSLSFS

[15] = Cytotoxicity against human DERL7 cells expressing JAK1/3 assessed as growth inhibition after 72 hrs by Cell Titre-Glo assay; format: functional, cell-based; settings: DERL7, 72 h
[16] = Clearance in Balb nu/nu mouse at 10 mg/kg, iv by LC/MS/MS analysis; format: ADME, organism-based; design: dose 10 mg/kg, route intravenous; settings: in vivo
[17] = Antitumor activity against human SET2 cells xenografted in SCID mouse assessed as tumor growth inhibition at 50 mg/kg, po bid for 10 days relative to control; format: functional; settings: SET-2, 240 h, read-out: TGI
[18] = Cmax in Balb nu/nu mouse at 10 mg/kg, po by LC/MS/MS analysis; format: ADME, organism-based; design: dose 10 mg/kg, route oral; settings: in vivo
Mus musculus [19] = assay: Toxicity in SCID mouse xenografted with human SET2 cells assessed as body weight loss at 50 mg/kg, po bid for 10 days; format: organism-based; design: dose 50 mg/kg, route oral; settings: in vivo, 240 h
[20] = target: Tyrosine-protein kinase JAK2 (Homo sapiens, UniProt O60674); assay: Inhibition of recombinant epitope-tagged JAK2 (808 to 1132) (unknown origin) using LPLDKDYYVVREPGQ as substrate by beta-countiing analysis in presence of 33P-gamma-ATP
[21] = Cytotoxicity against human SET2 cells expressing JAK2 assessed as growth inhibition after 72 hrs by Cell Titre-Glo assay; format: functional, cell-based; settings: SET-2, 72 h
Homo sapiens [22] = species: Homo sapiens; assay: Selectivity ratio of IC50 for recombinant epitope-tagged JAK1 (861 to 1152) (unknown origin) to IC50 for recombinant epitope-tagged JAK2 (808 to 1132) (unknown origin)
A2780 = assay: Cytotoxicity against human A2780 cells expressing […] assessed as growth inhibition after 72 hrs by Cell Titre-Glo assay; format: functional, cell-based; settings: A2780, 72 h
Homo sapiens [23] = species: Homo sapiens; assay: Selectivity ratio of IC50 for recombinant epitope-tagged JAK3 (781 to 1124) (unknown origin) to IC50 for recombinant epitope-tagged JAK2 (808 to 1132) (unknown origin)

Sequence of Tyrosine-protein kinase JAK2 (O60674 whole entry): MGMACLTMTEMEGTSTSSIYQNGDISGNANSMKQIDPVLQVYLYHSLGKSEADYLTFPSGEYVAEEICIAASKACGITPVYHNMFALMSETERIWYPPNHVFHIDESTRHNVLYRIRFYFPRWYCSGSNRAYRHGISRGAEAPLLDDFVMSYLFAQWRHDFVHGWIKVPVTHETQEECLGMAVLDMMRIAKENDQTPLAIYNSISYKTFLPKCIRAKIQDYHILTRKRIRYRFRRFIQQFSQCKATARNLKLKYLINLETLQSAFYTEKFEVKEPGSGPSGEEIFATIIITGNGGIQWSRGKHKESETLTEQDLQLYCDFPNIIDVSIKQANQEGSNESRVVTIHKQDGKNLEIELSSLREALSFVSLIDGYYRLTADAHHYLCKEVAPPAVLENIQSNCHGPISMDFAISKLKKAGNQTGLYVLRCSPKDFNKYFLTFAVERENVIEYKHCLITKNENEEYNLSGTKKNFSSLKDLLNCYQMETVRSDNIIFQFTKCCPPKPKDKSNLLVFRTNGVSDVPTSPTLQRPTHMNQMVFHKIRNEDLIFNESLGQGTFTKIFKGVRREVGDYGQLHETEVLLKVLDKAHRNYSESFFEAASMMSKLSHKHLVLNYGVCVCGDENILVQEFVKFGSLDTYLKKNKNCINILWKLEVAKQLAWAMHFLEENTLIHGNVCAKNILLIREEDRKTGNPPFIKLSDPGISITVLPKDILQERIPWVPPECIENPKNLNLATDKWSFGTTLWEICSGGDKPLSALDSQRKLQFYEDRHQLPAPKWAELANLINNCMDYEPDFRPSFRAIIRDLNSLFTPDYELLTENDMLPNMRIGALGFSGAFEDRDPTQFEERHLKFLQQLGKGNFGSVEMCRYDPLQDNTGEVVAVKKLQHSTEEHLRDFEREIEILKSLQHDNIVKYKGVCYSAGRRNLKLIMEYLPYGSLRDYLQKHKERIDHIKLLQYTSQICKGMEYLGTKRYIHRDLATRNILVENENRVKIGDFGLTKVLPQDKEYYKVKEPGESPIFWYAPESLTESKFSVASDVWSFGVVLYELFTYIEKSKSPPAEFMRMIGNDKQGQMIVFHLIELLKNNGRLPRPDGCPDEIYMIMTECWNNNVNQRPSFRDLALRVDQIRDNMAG
Sequence of Tyrosine-protein kinase JAK1 (Homo sapiens) (P23458 whole entry): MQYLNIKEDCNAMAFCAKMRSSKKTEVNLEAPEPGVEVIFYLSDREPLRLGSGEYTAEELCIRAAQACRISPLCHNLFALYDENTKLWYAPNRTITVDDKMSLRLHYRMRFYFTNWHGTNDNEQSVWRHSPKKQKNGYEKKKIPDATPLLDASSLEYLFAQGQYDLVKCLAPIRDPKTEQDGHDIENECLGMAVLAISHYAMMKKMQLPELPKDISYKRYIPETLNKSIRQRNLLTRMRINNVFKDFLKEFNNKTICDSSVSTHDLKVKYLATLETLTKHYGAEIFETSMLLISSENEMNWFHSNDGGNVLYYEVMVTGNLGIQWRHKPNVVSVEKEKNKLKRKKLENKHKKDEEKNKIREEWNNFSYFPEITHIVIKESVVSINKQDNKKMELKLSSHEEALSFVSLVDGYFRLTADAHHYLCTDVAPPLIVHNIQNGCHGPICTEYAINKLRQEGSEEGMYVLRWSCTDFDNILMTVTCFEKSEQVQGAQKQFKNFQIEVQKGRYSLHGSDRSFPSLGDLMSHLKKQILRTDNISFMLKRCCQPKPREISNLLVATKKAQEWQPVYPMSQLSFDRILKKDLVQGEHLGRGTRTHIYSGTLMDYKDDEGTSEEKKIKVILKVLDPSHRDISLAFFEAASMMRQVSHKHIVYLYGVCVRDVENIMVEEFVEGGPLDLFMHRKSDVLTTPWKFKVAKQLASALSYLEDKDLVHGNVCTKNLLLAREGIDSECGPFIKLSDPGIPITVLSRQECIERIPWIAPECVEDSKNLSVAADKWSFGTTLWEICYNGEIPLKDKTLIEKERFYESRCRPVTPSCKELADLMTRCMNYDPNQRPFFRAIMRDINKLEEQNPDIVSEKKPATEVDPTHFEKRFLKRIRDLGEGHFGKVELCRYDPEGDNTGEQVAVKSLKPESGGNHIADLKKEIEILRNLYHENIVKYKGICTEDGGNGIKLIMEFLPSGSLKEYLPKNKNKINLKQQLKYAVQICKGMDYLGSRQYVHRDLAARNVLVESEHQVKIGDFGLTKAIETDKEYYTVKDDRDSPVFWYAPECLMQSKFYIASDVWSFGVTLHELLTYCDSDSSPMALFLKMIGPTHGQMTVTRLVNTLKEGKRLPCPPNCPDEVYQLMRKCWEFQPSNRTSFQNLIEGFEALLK

Structure (SMILES): CCc1ccc(Cl)cc1-n1cc(-c2cc(N)ncn2)cc1C(N)=O
half-life [1]: 2.6 h
inhibition (Mus musculus [2]): Active
Cmax [3]: 45.9 µM
inhibition (Mus musculus [4]): inactive
Vd [5]: 0.6 L/kg
solubility [6]: 128 µM (≈ 43.8 µg/mL)
half-life [7]: 2 h
AUC(0-inf) [8]: 49.2 µM·h
inhibition [9]: Active
AUC(0-inf) [10]: 21 µM·h
inhibition (Mus musculus [11]): inactive
inhibition (Mus musculus [12]): Active
bioavailability [13]: 50%
inhibition [14]: Active
IC50 [15]: 2730 nM
clearance [16]: 8.3 mL/min/kg
inhibition in vivo at 50 mg/kg [17]: 41%
Cmax [18]: 12.5 µM
Activity (Mus musculus [19]): Non-toxic

Structure (SMILES): Cc1ccc(Cl)cc1-c1cn(-c2cc(N)ncn2)cc1C(N)=O
IC50 [20]: 369 nM

Structure (SMILES): Cc1ccc(Cl)cc1-c1[nH]c(-c2ccnc(N)n2)cc1C(N)=O
IC50 [21]: 430 nM
IC50 [15]: 740 nM

Structure (SMILES): CCc1ccc(Cl)cc1-n1cc(-c2cc(NC)ncn2)cc1C(N)=O
half-life [1]: 2.4 h
Ratio IC50 (Homo sapiens [22]): 9
Cmax [3]: 32 µM
IC50 [21]: 500 nM
Vd [5]: 1.4 L/kg
solubility [6]: 111 µM (≈ 39.5 µg/mL)
half-life [7]: 5.4 h
AUC(0-inf) [8]: 37.4 µM·h
IC50 (A2780): > 10000 nM
AUC(0-inf) [10]: 2.9 µM·h
Ratio IC50 (Homo sapiens [23]): 11
bioavailability [13]: 9%
IC50 [15]: 1720 nM
clearance [16]: 12 mL/min/kg
Cmax [18]: 1.6 µM

Structure (SMILES): NC(=O)c1cc(-c2ncnc3[nH]ccc23)cn1-c1cc(C(F)(F)F)ccc1Cl
Ratio IC50 (Homo sapiens [22]): 4
IC50 [21]: 60 nM
IC50 (A2780): > 10000 nM
Ratio IC50 (Homo sapiens [23]): 4
IC50 [15]: 150 nM

Structure (SMILES): CNc1cc(-n2cc(C(N)=O)c(-c3cc(Cl)ccc3C)c2)ncn1
IC50 [20]: 620 nM

Structure (SMILES): Cc1ccc(Cl)cc1-c1cn(-c2ncnc3[nH]ccc23)cc1C(N)=O
Ratio IC50 (Homo sapiens [22]): 5
IC50 [21]: 500 nM
IC50 [20]: 16 nM
solubility [6]: 2 µM (≈ 0.704 µg/mL)
IC50 (A2780): > 10000 nM
Ratio IC50 (Homo sapiens [23]): 14
IC50 [15]: > 10000 nM

Structure (SMILES): NC(=O)c1cc(-c2cc(N)ncn2)cn1-c1cc(C(F)(F)F)ccc1Cl
IC50 [21]: 1570 nM

Structure (SMILES): Cc1ccc(Cl)cc1-c1cn(-c2ncnn3cccc23)cc1C(N)=O
IC50 [20]: 2910 nM

Structure (SMILES): CCc1ccc(Cl)cc1-n1cc(-c2ncnc3[nH]ccc23)cc1C(N)=O
IC50 [21]: 30 nM
IC50 (A2780): > 5000 nM
IC50 [15]: 20 nM

Structure (SMILES): CCc1ccc(Cl)cc1-n1cc(-c2ncnn3cccc23)cc1C(N)=O
half-life [1]: 3.7 h
Ratio IC50 (Homo sapiens [22]): 7
Cmax [3]: 12.4 µM
IC50 [21]: 660 nM
Vd [5]: 5.8 L/kg
solubility [6]: 25 µM (≈ 9.15 µg/mL)
half-life [7]: 5.5 h
AUC(0-inf) [8]: 8.4 µM·h
IC50 (A2780): > 10000 nM
AUC(0-inf) [10]: 0.07 µM·h
Ratio IC50 (Homo sapiens [23]): 15
bioavailability [13]: 1%
IC50 [15]: 2140 nM
clearance [16]: 51 mL/min/kg
Cmax [18]: 0.04 µM

Structure (SMILES): Cc1ccc(Cl)cc1-c1cc(-c2ncnc3[nH]ccc23)[nH]c1C(N)=O
Ratio IC50 (Homo sapiens [22]): 5
IC50 [21]: 460 nM
IC50 [20]: 9 nM
solubility [6]: 3 µM (≈ 1.06 µg/mL)
IC50 (A2780): 9400 nM
Ratio IC50 (Homo sapiens [23]): 6
IC50 [15]: 7300 nM

Structure (SMILES): Cc1ccc(Cl)cc1-n1cc(-c2ncnn3cccc23)cc1C(N)=O
IC50 [21]: 1920 nM

Structure (SMILES): CCc1ccc(Cl)cc1-c1cc(-c2ncnc3[nH]ccc23)[nH]c1C(N)=O
Ratio IC50 (Homo sapiens [22]): 6
IC50 [21]: 320 nM
IC50 [20]: 3 nM
IC50 (A2780): 1600 nM
Ratio IC50 (Homo sapiens [23]): 7
IC50 [15]: 1100 nM

Structure (SMILES): Cc1ccc(Cl)cc1-c1cc(-c2cc(N)ncn2)[nH]c1C(N)=O
IC50 [20]: 690 nM

Structure (SMILES): CNc1cc(-c2cc(C(N)=O)n(-c3cc(C(F)(F)F)ccc3Cl)c2)ncn1
IC50 [20]: 331 nM

Continued, in another order:

IC50 [20]: 972 nM
Structure (SMILES): Cc1ccc(Cl)cc1-c1ccc(-c2ccnc(N)n2)[nH]1

half-life [1]: 3 h
Ratio IC50 (Homo sapiens [22]): 3
Cmax [3]: 51 µM
Vd [5]: 0.7 L/kg
solubility [6]: 40 µM (≈ 14.1 µg/mL)
half-life [7]: 5 h
AUC(0-inf) [8]: 26.2 µM·h
AUC(0-inf) [10]: 1.6 µM·h
Ratio IC50 (Homo sapiens [23]): 5
bioavailability [13]: 8%
clearance [16]: 17 mL/min/kg
Cmax [18]: 0.69 µM
Structure (SMILES): Cc1ccc(Cl)cc1-n1cc(-c2ncnc3[nH]ccc23)cc1C(N)=O
IC50 [21]: 80 nM
IC50 (A2780): 7400 nM
IC50 [15]: 460 nM

IC50 [20]: 1070 nM
Structure (SMILES): Cc1ccc(Cl)cc1-c1ncc(-c2ccnc(N)n2)[nH]1

IC50 [20]: 220 nM
Structure (SMILES): Cc1ccc(Cl)cc1-c1cn(-c2ccnc(N)n2)cc1C(N)=O

IC50 [20]: > 10000 nM
Structure (SMILES): Cc1ccc(Cl)cc1-n1nc(-c2ccnc(N)n2)cc1C(N)=O

IC50 [20]: 216 nM
Structure (SMILES): Cc1ccc(Cl)cc1-n1cc(-c2ccnc(N)n2)cc1C(N)=O

IC50 [20]: 950 nM
Structure (SMILES): Cc1ccc(Cl)cc1-n1cc(-c2ccnc(N)n2)cn1

IC50 [20]: 131 nM
Structure (SMILES): CNc1cc(-c2cc(C(N)=O)n(-c3cc(Cl)ccc3C)c2)ncn1
